Assay results as given in the supplement of paper PMC10307832.

Legend:
Assay in all cases: relative viability (nuclei count vs DMSO), 5 days (fraction); higher = more cells survive
XMD13-2 + Bortezomib = compound: C1CC1C(=O)NC2=NNC3=C2C=CC(=C3)C4=CC(=CC=C4)C(=O)NC5CC5 [XMD13-2] + CC(C)C[C@H](NC(=O)[C@H](Cc1ccccc1)NC(=O)c1cnccn1)B(O)O [Bortezomib] (partner 0.002 µM)
Procedure, shortened: (§1)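 Each reported value is a median over duplicate plates. It expresses relative viability: treated-well nuclei count divided by vehicle-well nuclei count. Lung cancer cell lines in 1536-well plates were dosed by pin tool a day after seeding, alone with one drug or with a fixed anchor-drug dose plus five library-drug doses (not always all listed) in √10 steps, and nuclei were counted after 5 days.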

ALW-II-49-7 + Dasatinib = compound: Cc1ccc(C(=O)Nc2cccc(C(F)(F)F)c2)cc1Nc1cncc(C(N)=O)c1 [ALW-II-49-7] + Cc1nc(Nc2ncc(C(=O)Nc3c(C)cccc3Cl)s2)cc(N2CCN(CCO)CC2)n1 [Dasatinib] (partner 0.075 µM)
Procedure, shortened: as §1

[1] = compound: Cc1ccc(C(=O)Nc2cccc(C(F)(F)F)c2)cc1Nc1cncc(C(N)=O)c1 [ALW-II-49-7] + CC(=O)c1c(C)c2cnc(Nc3ccc(N4CCNCC4)cn3)nc2n(C2CCCC2)c1=O [Palbociclib] (partner 0.5 µM)
Procedure, shortened: as §1

XMD13-2 + AZD7762 = compound: C1CC1C(=O)NC2=NNC3=C2C=CC(=C3)C4=CC(=CC=C4)C(=O)NC5CC5 [XMD13-2] + NC(=O)Nc1cc(-c2cccc(F)c2)sc1C(=O)N[C@H]1CCCNC1 [AZD7762] (partner 0.2 µM)
Procedure, shortened: as §1

Row | Cell Line | relative viability (XMD13-2 + Bortezomib; first compound 0.05 µM) | relative viability (XMD13-2 + Bortezomib; first compound 0.1581 µM) | relative viability (XMD13-2 + Bortezomib; first compound 0.5 µM) | relative viability (XMD13-2 + Bortezomib; first compound 1.581 µM) | relative viability (XMD13-2 + Bortezomib; first compound 5 µM) | relative viability (ALW-II-49-7 + Dasatinib; first compound 0.08 µM) | relative viability (ALW-II-49-7 + Dasatinib; first compound 0.253 µM) | relative viability (ALW-II-49-7 + Dasatinib; first compound 0.8 µM) | relative viability (ALW-II-49-7 + Dasatinib; first compound 2.53 µM) | relative viability (ALW-II-49-7 + Dasatinib; first compound 8 µM) | relative viability ([1]; first compound 0.08 µM) | relative viability ([1]; first compound 0.253 µM) | relative viability ([1]; first compound 0.8 µM) | relative viability ([1]; first compound 2.53 µM) | relative viability ([1]; first compound 8 µM) | relative viability (XMD13-2 + AZD7762; first compound 0.05 µM) | relative viability (XMD13-2 + AZD7762; first compound 0.1581 µM) | relative viability (XMD13-2 + AZD7762; first compound 0.5 µM) | relative viability (XMD13-2 + AZD7762; first compound 1.581 µM) | relative viability (XMD13-2 + AZD7762; first compound 5 µM)
1 | NCI-H441 | 0.652 | 0.49 | 0.524 | 0.464 | 0.594 | 0.497 | 0.475 | 0.684 | 0.674 | 0.459 | 0.182 | 0.177 | 0.249 | 0.212 | 0.188 | 1.17 | 1.29 | 1.18 | 1.14 | 1.04
2 | NCI-H460 | 1.38 | 1.09 | 1.15 | 1.18 | 1.34 | 0.492 | 0.583 | 0.563 | 0.423 | 0.507 | 0.171 | 0.185 | 0.126 | 0.136 | 0.111 | 0.708 | 0.751 | 0.633 | 0.66 | 0.683
3 | NCI-H647 | 1.59 | 1.16 | 1.29 | 1.11 | 0.549 | 0.153 | 0.131 | 0.15 | 0.161 | 0.193 | 0.422 | 0.307 | 0.444 | 0.294 | 0.238 | 0.558 | 0.521 | 0.532 | 0.406 | 0.248
4 | NCI-H650 | 0.932 | 0.757 | 0.983 | 0.683 | 0.993 | 0.42 | 0.518 | 0.421 | 0.482 | 0.341 | 0.277 | 0.309 | 0.351 | 0.327 | 0.236 | 1.22 | 1.02 | 1.14 | 0.847 | 1.43
5 | NCI-H727 | 0.996 | 0.936 | 0.792 | 0.982 | 1.03 | 0.352 | 0.324 | 0.193 | 0.412 | 0.446 | 0.604 | 0.63 | 0.676 | 0.555 | 0.577 | 0.807 | 0.665 | 0.583 | 0.505 | 0.776
6 | NCI-H838 | 1.15 | 0.886 | 1.03 | 0.81 | 0.986 | 0.395 | 0.34 | 0.294 | 0.257 | 0.255 | 0.246 | 0.225 | 0.203 | 0.232 | 0.191 | 0.986 | 1.04 | 1.06 | 0.967 | 0.954
7 | NCI-H1355 | 1.3 | 1.32 | 1.18 | 1.19 | 1.28 | 0.615 | 0.731 | 0.622 | 0.573 | 0.658 | 0.372 | 0.428 | 0.376 | 0.4 | 0.436 | 0.854 | 0.881 | 0.787 | 0.636 | 0.793
8 | NCI-H1437 | 0.667 | 0.551 | 0.658 | 0.527 | 0.597 | 0.414 | 0.404 | 0.425 | 0.309 | 0.333 | 0.288 | 0.318 | 0.286 | 0.34 | 0.315 | 1.24 | 1.14 | 1.18 | 1.09 | 1.17
9 | NCI-H1651 | 1.02 | 0.914 | 0.946 | 0.92 | 0.965 | 0.317 | 0.393 | 0.432 | 0.507 | 0.517 | 0.522 | 0.476 | 0.49 | 0.439 | 0.444 | 0.515 | 0.577 | 0.486 | 0.462 | 0.511
10 | NCI-H1666 | 0.893 | 0.838 | 1.02 | 0.763 | 0.468 | 0.845 | 0.81 | 0.794 | 0.767 | 0.835 | 0.663 | 0.655 | 0.692 | 0.67 | 0.666 | 0.849 | 0.89 | 0.927 | 0.81 | 0.807
11 | NCI-H1734 | 1.35 | 0.954 | 0.887 | 0.729 | 0.768 | 0.483 | 0.414 | 0.485 | 0.463 | 0.332 | 0.293 | 0.376 | 0.355 | 0.319 | 0.296 | 0.66 | 0.673 | 0.548 | 0.501 | 0.493
12 | NCI-H1755 | 0.992 | 1.02 | 0.984 | 0.934 | 1.03 | 0.397 | 0.442 | 0.459 | 0.408 | 0.308 | 0.439 | 0.498 | 0.41 | 0.415 | 0.431 | 0.419 | 0.431 | 0.46 | 0.449 | 0.413
13 | NCI-H1792 | 1.16 | 0.996 | 1 | 0.927 | 1.15 | 0.896 | 0.757 | 0.876 | 0.355 | 0.732 | 0.564 | 0.454 | 0.471 | 0.522 | 0.548 | 0.854 | 0.78 | 0.762 | 0.634 | 0.846
14 | NCI-H1915 | 1.06 | 1.01 | 1.01 | 0.979 | 1.01 | 0.372 | 0.349 | 0.339 | 0.326 | 0.292 | 0.618 | 0.595 | 0.543 | 0.453 | 0.414 | 0.675 | 0.774 | 0.708 | 0.696 | 0.646
15 | NCI-H1975 | 0.45 | 0.384 | 0.345 | 0.392 | 0.445 | 0.298 | 0.451 | 0.323 | 0.349 | 0.34 | 0.608 | 0.58 | 0.459 | 0.59 | 0.44 | 0.857 | 0.869 | 0.735 | 0.664 | 0.799
16 | NCI-H1993 | 1.42 | 1.08 | 1.02 | 0.972 | 1.04 | 0.492 | 0.533 | 0.423 | 0.545 | 0.666 | 0.717 | 0.717 | 0.571 | 0.705 | 0.684 | 0.926 | 0.595 | 0.387 | 0.63 | 0.791
